Experimental findings from ChEMBL document CHEMBL4184283, “High expression of class III β-tubulin has no impact on functional cancer cell growth inhibition of a series of key vinblastine analogs” (Bioorg Med Chem Lett, 2018) are described below.

The subject of test [1] is L1210. Nature of the test: Growth inhibition of mouse L1210 cells after 72 hrs by phosphatase assay. It is filed as functional, cell-based. To be noted: L1210, 72 h.
Test [2] concerns HCT-116. The test is described as follows: Growth inhibition of human HCT116 cells after 72 hrs by phosphatase assay. Format: functional, cell-based. To be noted: HCT-116, 72 h.
Test [3] is described as follows: Growth inhibition of human A549-T24 cells over-expressing class-3 beta-tubulin. Format: functional.
Test [4] is described as follows: Selectivity ratio of IC50 for human A549-T24 cells over-expressing class-3 beta-tubulin to IC50 for human A549 cells. Format: functional.
Test [5] concerns HCT-116/VM46. The test is described as follows: Growth inhibition of human HCT116/VM46 cells over-expressing P-gp after 72 hrs by phosphatase assay. The conditions noted are these: HCT-116/VM46, 72 h. Format: functional, cell-based.
Test [6] has as its system A549. Nature of the test: Growth inhibition of human A549 cells. It is filed as functional, cell-based.
Test [7] can be described thus: Selectivity ratio of IC50 for human HCT116/VM46 cells over-expressing P-gp to IC50 for human HCT116 cells. It is filed as functional.

For orientation: IC50 means the point on the concentration scale where inhibition reaches its midpoint. Read a low IC50 as greater potency. For `CC[C@]1(NC(=O)N2Cc3ccc(NC(=O)c4ccncn4)cc3C2)C[C@H]2CN(CCc3c([nH]c4ccc(F)cc34)[C@@](C(=O)OC)(c3cc4c(cc3OC)N(C)[C@H]3[C@@](O)(C(=O)OC)[C@H](OC(C)=O)[C@]5(CC)C=CCN6CC[C@]43[C@@H]65)C2)C1`, the IC50 in test [1] amounted to 0.06 nM; in test [2], 0.07 nM; in test [3], 0.13 nM; in test [5] it was 0.88 nM; in test [6], 0.17 nM. For the same compound, the results for the “Ratio IC50” value in test [4] and in test [7] were less than 1 and 13, respectively.

With `CC[C@]1(NC(=O)c2ccc3c(c2)CCCO3)C[C@H]2CN(CCc3c([nH]c4ccc(F)cc34)[C@@](C(=O)OC)(c3cc4c(cc3OC)N(C)[C@H]3[C@@](O)(C(=O)OC)[C@H](OC(C)=O)[C@]5(CC)C=CCN6CC[C@]43[C@@H]65)C2)C1`, the IC50 in test [1] amounted to 0.4 nM; in test [2] it was 0.5 nM; in test [3], 0.8 nM; in test [5] it was 1.8 nM; in test [6], 1.4 nM. In addition, the “Ratio IC50” value was less than 1 in test [4] and 3.8 in test [7].

As for `CC[C@]1(NC(=O)c2ccc3c(c2)CCCC3)C[C@H]2CN(CCc3c([nH]c4ccc(F)cc34)[C@@](C(=O)OC)(c3cc4c(cc3OC)N(C)[C@H]3[C@@](O)(C(=O)OC)[C@H](OC(C)=O)[C@]5(CC)C=CCN6CC[C@]43[C@@H]65)C2)C1`, the IC50 came to 3 nM in test [1]; 4.9 nM in test [2]; 6.5 nM in test [3]; 8.7 nM in test [5]; 7.6 nM in test [6]. Also, the “Ratio IC50” value is listed as less than 1 in test [4] and 1.8 in test [7].

`CC[C@]1(NC(=O)c2ccc(C)c(C)c2)C[C@H]2CN(CCc3c([nH]c4ccc(F)cc34)[C@@](C(=O)OC)(c3cc4c(cc3OC)N(C)[C@H]3[C@@](O)(C(=O)OC)[C@H](OC(C)=O)[C@]5(CC)C=CCN6CC[C@]43[C@@H]65)C2)C1`: the IC50 in test [1] came out at 3 nM; in test [2], 4.5 nM; in test [3] it was 2.5 nM; in test [5], 7.6 nM; in test [6], 5 nM. For the same compound, the results for the “Ratio IC50” value in test [4] and in test [7] were less than 1 and 1.7, respectively.

Turning to `CC[C@]1(O)C[C@H]2CN(CCc3c([nH]c4ccc(F)cc34)[C@@](C(=O)OC)(c3cc4c(cc3OC)N(C)[C@H]3[C@@](O)(C(=O)OC)[C@H](OC(C)=O)[C@]5(CC)C=CCN6CC[C@]43[C@@H]65)C2)C1`, the values for the IC50 in test [3] and in test [6] were 0.8 nM and 2.9 nM, respectively. Also, the “Ratio IC50” value was less than 1 in test [4] and 100 in test [7].

For `CC[C@]1(NC(=O)N2Cc3ccc(NC(=O)c4cnccn4)cc3C2)C[C@H]2CN(CCc3c([nH]c4ccc(F)cc34)[C@@](C(=O)OC)(c3cc4c(cc3OC)N(C)[C@H]3[C@@](O)(C(=O)OC)[C@H](OC(C)=O)[C@]5(CC)C=CCN6CC[C@]43[C@@H]65)C2)C1`, the IC50 in test [1] was 0.06 nM; in test [2], 0.07 nM; in test [3] it was 0.09 nM; in test [5], 0.83 nM; in test [6], 0.19 nM. Moreover, the “Ratio IC50” value was less than 1 in test [4] and 12 in test [7].

On to `CC[C@]1(O)C[C@@H]2CN(CCc3c([nH]c4ccccc34)[C@@](C(=O)OC)(c3cc4c(cc3OC)N(C)[C@H]3[C@@](O)(C(=O)OC)[C@H](OC(C)=O)[C@]5(CC)C=CCN6CC[C@]43[C@@H]65)C2)C1` [VINBLASTINE], for which the IC50 in test [3] is 6.7 nM; in test [6], 7.7 nM. The “Ratio IC50” value in test [4] is given as less than 1.

With `CC(=O)O[C@H]1C(=O)[C@@]2(C)[C@H]([C@H](OC(=O)c3ccccc3)[C@]3(O)C[C@H](OC(=O)[C@H](O)[C@@H](NC(=O)c4ccccc4)c4ccccc4)C(C)=C1C3(C)C)[C@]1(OC(C)=O)CO[C@@H]1C[C@@H]2O` [PACLITAXEL], the IC50 in test [3] was 70 nM; in test [5], greater than 200 nM; in test [6] it was 7.1 nM. Besides, the “Ratio IC50” value was 10 in test [4] and greater than 50 in test [7].

As for `CC[C@]1(NC(=O)N2Cc3ccccc3C2)C[C@H]2CN(CCc3c([nH]c4ccc(F)cc34)[C@@](C(=O)OC)(c3cc4c(cc3OC)N(C)[C@H]3[C@@](O)(C(=O)OC)[C@H](OC(C)=O)[C@]5(CC)C=CCN6CC[C@]43[C@@H]65)C2)C1`, the IC50 in test [1] was determined as 0.5 nM; in test [2], 0.6 nM; in test [3] it was 0.7 nM; in test [5], 7.5 nM; in test [6] it was 0.7 nM. Also, the results for the “Ratio IC50” value in test [4] and in test [7] were 1 and 12, respectively.

As to `CC[C@]1(NC(=O)N2Cc3ccc(NC(=O)c4cccnn4)cc3C2)C[C@H]2CN(CCc3c([nH]c4ccc(F)cc34)[C@@](C(=O)OC)(c3cc4c(cc3OC)N(C)[C@H]3[C@@](O)(C(=O)OC)[C@H](OC(C)=O)[C@]5(CC)C=CCN6CC[C@]43[C@@H]65)C2)C1`, the IC50 in test [1] stood at 0.06 nM; in test [2] it was 0.07 nM; in test [3], 0.26 nM; in test [5], 0.87 nM; in test [6] it was 0.53 nM. Moreover, the “Ratio IC50” value in test [4] is less than 1; in test [7], 12.
